This note sets out measurements from publication PMC6152040, “Isolation and Characterization of Aphidicolin Derivatives from Tolypocladium inflatum” (Molecules : A Journal of Synthetic Chemistry and Natural …, 2017).

Common to all, as to assay type: cell-based
Experiment [1] has as its system HaCaT (human keratinocyte) cells. As to the kind of experiment: MTS cytotoxicity assay, HaCaT negative control cells. As to conditions: MTS method, 72 h incubation. (In general: Tetrazolium assays rely on reduction of a dye to a coloured formazan, in cell work by metabolically active cells.)
For experiment [2], the system named is A375 malignant melanoma cells. As to the kind of experiment: MTS cytotoxicity assay, A375. Conditions: Homo sapiens, A-375, MTS method, 72 h incubation. How it is done:
(§1) Compounds 1, 4–8 were tested for the cytotoxicities against A549, CNE1-MP1, A375, and MCF-7 human cancer cell lines using MTS method.
(§2) Cytotoxic activity was tested against four human cancer cell lines (A549, CNE1-MP1, A375, and MCF-7) using the MTS method. For the MTS assay, the CellTiter 96® AQueous One Solution Reagent (Promega, Madison, WI, USA) was used following the manufacturer’s instruction. In a 96-well plate, each well was plated with 2–5 × 10^3 cells (It depends on the cell multiplication rate). […] The plate was incubated for 72 h at 37 °C in a humidified, 5% CO2 atmosphere. Proliferation assessed by adding 20 μL of MTS to each well in dark followed by a 90 min incubation at 37 °C. The assay plate was read at 490 nm using a microplate reader (Bio-Rad, Hercules, CA, USA). The assay was run in triplicate.

Experiment [3] deals with CNE1-LMP1 stable oncoprotein LMP1 integrated nasopharyngeal carcinoma cells. As to the kind of experiment: MTS cytotoxicity assay, CNE1-LMP1. As to conditions: Homo sapiens, MTS method, 72 h incubation. How it is done:
as §1, §2

Experiment [4] has as its system MCF-7 breast cancer cells. As to the kind of experiment: MTS cytotoxicity assay, MCF-7. Conditions: Homo sapiens, MCF7, MTS method, 72 h incubation. How it is done:
as §1, §2

The test system of experiment [5] is A549 lung adenocarcinoma cells. Nature of the experiment: MTS cytotoxicity assay, A549. As to conditions: Homo sapiens, MTS method, 72 h incubation. The method, then: as §1, §2

One may read the IC50 as the concentration at which inhibition is half-maximal. A lower IC50 goes with greater potency in that assay. For `COc1cc(=O)oc(C(C)[C@H](C)O)c1C` (stereo partly drawn) [Compound 6, gulypyrone A], the IC50 in experiment [1], in experiment [2], in experiment [3], in experiment [4] and in experiment [5] was > 100 µM in each case.

As for `CC(=O)O[C@H]1C(=O)[C@@]2(C)[C@H]([C@H](OC(=O)c3ccccc3)[C@]3(O)C[C@H](OC(=O)[C@H](O)[C@@H](NC(=O)c4ccccc4)c4ccccc4)C(C)=C1C3(C)C)[C@]1(OC(C)=O)CO[C@@H]1C[C@@H]2O` [paclitaxel, reference compound], the IC50 in experiment [1] came to 0.024 µM; in experiment [2], 0.0089 µM; in experiment [3] it was 0.0042 µM; in experiment [4], 0.014 µM; in experiment [5], 0.03 µM.

As to `CC(=O)OC[C@@]1(O)CC[C@]23C[C@H]1C[C@@H]2CC[C@H]1[C@](C)(CO)[C@H](O)CC[C@@]13C` [Compound 5, aphidicolin-17-monoacetate], the half-maximal inhibitory concentration (IC50) was 8 µM in experiment [1]; 40.5 µM in experiment [2]; 4 µM in experiment [3]; 66.2 µM in experiment [4]; 5.2 µM in experiment [5].

For `C[C@@]1(CO)[C@H](O)CC[C@@]2(C)[C@H]1CC[C@H]1C[C@@H]3C[C@@]12CC[C@]3(O)CO` [Compound 4, aphidicolin], the IC50 in experiment [1] was 10.4 µM; in experiment [2] it was 37.3 µM; in experiment [3], 3.12 µM; in experiment [4] it was 42.3 µM; in experiment [5] it was 16.2 µM.

With `CC12COC(c3ccccc3)OC1CCC1(C)C2CCC2CC3CC21CCC3(O)CO` (stereo not drawn) [Compound 1, Inflatin G], the IC50 in experiment [1] was 42.6 µM; in experiment [2] it was 39.8 µM; in experiment [3], 35.4 µM; in experiment [4], 35.2 µM; in experiment [5], 68.7 µM.

In the case of `C=C[C@H]1C[C@@H](C)C[C@@H](C)[C@@H]1c1c(O)ccn(O)c1=O` [Compound 7 and 8, pyridoxatin rotamers A (7) and B (8)], the IC50 is > 47.5 µM in experiment [1]; 0.1 µM in experiment [2]; 0.2 µM in experiment [3]; 0.17 µM in experiment [4]; 0.44 µM in experiment [5].
